Assays:
[1] = system: U-2 OS cells; test: Colony outgrowth assay (clonogenic survival), wild-type vs BRCA2 siRNA depleted; format: cell-based, human; conditions: 14 days
Description: Activity of SNS-595 in these assays was evaluated by clonogenic survival and compared with doxorubicin. The following protocol was used for the assay:
1. 200,000 cells were plated in each of 2 wells in a 6-well plate, and incubated over night at 37° C. and 5% CO2 atmosphere.
A: Test: 50 μL of 2 μM siBRCA2 (si Genome SMARTpool, Dharmacon)+150 μL OptiMEM (Gibco)
B: Control (no siRNA): 200 μL OptiMEM
C: 2 μL DharmaFect 1 (Dharmacon)+198 μL OptiMEM
2. Reagents were allowed to stand at room temperature for 5 minutes.
3. Reagents A+C and B+C were mixed and allowed to stand at room temperature for 20 min.
4. The media in wells was replaced with 1.6 mL of antibiotic-free media (DMEM, Gibco).
5. 400 μL of reagents A+B or B+C were added and mixed in wells. The plate was incubated at 37° C.
1. After 24 hr of siRNA treatment, cells were trypsinized and counted.
2. Cells were plated in 100 mm dishes at 500 or 1000 cells/dish in 10 mL media and incubated for 4 hr.
3. After 4 hr, test substances were added and plates were incubated for 14 days.
1. The plates were harvested and cells were fixed in methylene blue (4g/L in methanol) and colonies containing more than 50 cells were counted.

[2] = system: VC8-B2 cells (complemented for functional BRCA2); test: Growth inhibition (proliferation) assay in BRCA2 complemented cells; format: cell-based, Chinese hamster; conditions: Cricetulus griseus; VC8-B2 cells expressing functional BRCA2; 4 hr treatment, 120 hr incubation, resazurin
Description: (§1) The VC8 and VC8-B2 cell lines originate from V79 Chinese hamster […] fibroblast cells. VC8 has a mutation in the brca2 gene and VC8-B2 is this cell line complemented with the human chromosome 13 (containing the brca2 gene; […] Zwet et al., Mol Cell Biol, 2002, 22(2):669-679). The influence of BRCA2 on sensitivity to SNS-595 was evaluated by a proliferation assay in Chinese hamster cells mutant (VC8) and complemented for functional BRCA2 (VC8-B2). […] The following protocol was used for the assay: 1. 4000 cells/well were plated in a 96-well plate such that half of the plate contained VC8 cells, and other half contained VC8-B2 cells. The last column was left cell-free as background control. 2. The plate was incubated at 37° C. with 5% CO2. 1. The media was removed and 50 μL of fresh media was added into each well. 2. […] 3. 100 μL from the first column was transferred into second column and mixed. 100 μL from the second column was transferred into third column and mixed and so on until end of plate. One column was left untreated. The plate was incubated at 37° C. with 5% CO2. […] After 4 hr treatment, plate was washed twice with 100 μL PBS and 250 μL media was added. The plate was incubated at 37° C. with 5% CO2. 1. After 120 hr incubation, the plate was washed with 100 μL PBS and 100 μL resaszurin (10 μg/mL in phenol red-free complete DMEM) was added. 2.

[3] = system: VC8 cells (BRCA2 mutant); test: Growth inhibition (proliferation) assay in BRCA2 mutant cells; format: cell-based, Chinese hamster; conditions: for IC50: Cricetulus griseus, V-C8, VC8 cells mutant for BRCA2, 4 hr treatment, 120 hr incubation, resazurin; for increase in sensitivity in cells mutant for BRCA2 as compared to cells expressing functional BRCA2: VC8 vs VC8-B2, ratio of IC50
Description: as §1

[4] = system: SPD8 cells; test: Recombination assay: cloning efficiency; format: cell-based, Chinese hamster; conditions: SNS-595 2 μM, doxorubicin 0.5 μM; for cloning efficiency: alone, 4 hr treatment; for effect of aphidicolin (S-phase blocker) co-treatment on cytotoxicity: co-treatment with aphidicolin 0.5 μM
From the text: (§2) The SPD8 cell line carries a spontaneously derived mutation in the hprt gene and was isolated as a 6-thioguanine (6TG) resistant clone from the V79 Chinese hamster fibroblast cell line. The mutation within the hprt gene is a tandem duplication of exon 7, intron 6, and the 3′ portion of exon 6 that results in expression of a non-functional HPRT protein (Darè et al., Somat Cell Mol Genet, 1996, 22:201-210; and Helleday et al., J Mol Biol, 1998, 279(4):687-694). This duplication can be lost through HR that revert the hprt gene to wild-type, which can be selected for in HAsT (50 μM hypoxanthine, 10 μM L-azaserine, 5 μM thymidine) (Helleday et al. 1998). The DMEM was supplemented with 6TG (5 μg/mL) in order to kill cells that undergo spontaneous reversion. The addition of 6TG at this concentration affects neither the growth rate of these mutants nor the recombination assay procedure.
(§3) Each flask (75 cm^2) was inoculated with 1.5×10^6 SPD8 cells 24 hr prior to treatment with SNS-595 (2 μM) or doxorubicin (0.5 μM) and in co-treatment with aphidicolin (0.5 μM). After 4 hr of treatment, flasks were rinsed twice with PBS and 20 mL DMEM was added. Cells were then incubated for 48 hr to recover before plating onto Petri dishes. Cloning efficiency was measured by plating 500 cells in 10 mL of medium, two Petri dishes per dose. HPRT+ revertants were selected for by plating 3×10^5 cells/dish in the presence of HAsT (50 μM hypoxanthine,10 μM L-azaserine, 5μM thymidine), three dishes per dose. After 7 and 10 days, respectively, the plates were harvested and the colonies were fixed and stained using methylene blue in methanol (4 g/L). Colonies containing more than 50 cells were counted.

[5] = system: SPD8 cells (hprt gene reversion by homologous recombination); test: Recombination assay: HPRT mutation reversion frequency; format: cell-based, Chinese hamster; conditions: for reversion frequency: alone, SNS-595 2 μM, doxorubicin 0.5 μM, 4 hr treatment; for effect of S-phase block (aphidicolin co-treatment) on induced reversion rate / recombination events: co-treatment with aphidicolin 0.5 μM
From the text: as §2, §3

[6] = system: SPD8 cells; test: Pulsed field gel electrophoresis (PFGE) of DNA fragments; format: cell-based, Chinese hamster
From the text: as §2
Two million (2×10^6) SPD8 cells were seeded in flasks (75 cm^2) and incubated overnight. Subsequently, cells were treated with SNS-595 (20 μM) or doxorubicin (3 μM) and in co-treatment with aphidicolin (3 μM) for 4 hr before being melted into agarose insert (1×10^6 cells/70 μL 1% InCert Agarose, BMA). Inserts were transferred to 0.5 M EDTA, 1% N-laurylsarcosyl and proteinase K (1 mg/mL) and incubated at 50° C. for 48 hr and thereafter washed four times in TE-buffer (2 hr between each wash) prior to loading onto an agarose separation gel (1% Chromosomal grade agarose, Bio-Rad). Separation was performed on a CHEF DR III system (BioRad; 120° field angle, 240 seconds switch time, 4 V/cm) for 18 hr or for 24 hours with 60 to 240 seconds switch time. The gel was stained with ethidium bromide for 5 hr and subsequently analyzed by scanning fluorescence reader (Molecular Imager FX, BioRad) using Quantative One software.

Compound | sensitivity of U-2 OS cells depleted for BRCA2 using siRNA relative to wild-type cells [1] | IC50 [2] | IC50 [3] | increase in sensitivity in cells mutant for BRCA2 as compared to cells expressing functional BRCA2 [3] | cloning efficiency [4] | effect of aphidicolin (S-phase blocker) co-treatment on cytotoxicity [4] | reversion frequency [5] | effect of S-phase block (aphidicolin co-treatment) on induced reversion rate / recombination events [5] | production of small DNA fragments ([6]; FIG. 5 and 6, SNS-595 20 μM, doxorubicin 3 μM, 4 hr, PFGE 18 hr and 24 hr runs) | production of small DNA fragments ([6]; FIG. 7, 18 hr PFGE run, 240 seconds switch time) | production of small DNA fragments ([6]; FIG. 8, 24 hr PFGE run, 60 to 240 seconds switch time)
CN[C@H]1CN(c2ccc3c(=O)c(C(=O)O)cn(-c4nccs4)c3n2)C[C@@H]1OC [SNS-595, (+)-1,4-dihydro-7-[(3S,4S)-3-methoxy-4-(methylamino)-1-pyrrolidinyl]-4-oxo-1-(2-thiazolyl)-1,8-naphthyridine-3-carboxylic acid] | 4.6 × | 0.72 µM | 0.14 µM | approximately 5 fold | significantly impaired | reduction in cytotoxicity | increased | no effect |  |  | 
COc1cccc2c1C(=O)c1c(O)c3c(c(O)c1C2=O)C[C@@](O)(C(=O)CO)C[C@@H]3O[C@H]1C[C@H](N)[C@H](O)[C@H](C)O1 [doxorubicin] |  | 0.19 µM | 0.05 µM | approximately 4 fold | significantly impaired | reduction in cytotoxicity | increased | significantly reduced | more small DNA fragments | more small DNA fragments | more small DNA fragments

Source: patent publication US20170182015A1, “METHODS OF USING SNS-595 FOR TREATMENT OF CANCER SUBJECTS WITH REDUCED BRCA2 ACTIVITY” (Sunesis Pharmaceuticals, Inc., priority 2009, published 2017)
